Experimental data taken from the NIST ThermoML archive (doi:10.1016/j.fluid.2011.02.010).

Legend:
[1] = for mass density / viscosity / speed of sound: 101 kPa; for speed of sound: Frequency=2 MHz
[2] = xn = mol fraction of the nth substance listed; conditions: 101 kPa, Liquid, x2 = 0; for speed of sound: Frequency=2 MHz

C[S+](C)[O-] [dimethyl sulfoxide]
[1], Liquid
Conditions	mass density [kg/m3]	speed of sound [m/s]	viscosity [mPa·s]
298.15 K	1095.37	1496	1.99
303.15 K	1092.41	1472	1.8
308.15 K	1086.07	1460	1.65
318.15 K	1076.22	1428	1.38
328.15 K	1066.09	1412	1.04

C[S+](C)[O-] [dimethyl sulfoxide] + CCCCn1cc[n+](C)c1.[Cl-]
[2]
Conditions	mass density [kg/m3]	speed of sound [m/s]	viscosity [mPa·s]
298.15 K	1095.37	1496	1.99
303.15 K	1092.41	1472	1.8
308.15 K	1086.07	1460	1.65
318.15 K	1076.22	1428	1.38
328.15 K	1066.09	1412	1.04

C[S+](C)[O-] [dimethyl sulfoxide] + CC[NH2+]CC.O=S(=O)([O-])O
[2]
Conditions	mass density [kg/m3]	speed of sound [m/s]	viscosity [mPa·s]
298.15 K	1095.37	1496	1.99
303.15 K	1092.41	1472	1.8
308.15 K	1086.07	1460	1.65
318.15 K	1076.22	1428	1.38
328.15 K	1066.09	1412	1.04

CC[NH2+]CC.O=S(=O)([O-])O [diethylammonium hydrogen sulfate]
[1]
Conditions	Normal melting temperature, visual observation [°C]	mass density, Metastable liquid [kg/m3]	speed of sound, Metastable liquid [m/s]	viscosity, Metastable liquid [mPa·s]
298.15 K	–	1028.39	1432	25.8
303.15 K	–	1023.97	1408	21.3
308.15 K	–	1020.54	1392	18.1
318.15 K	–	1012.68	1356	13.61
328.15 K	–	1004.83	1324	10.2
Crystal	81.00	–	–	–

CCCCn1cc[n+](C)c1.[Cl-] [1-butyl-3-methylimidazolium chloride]
[1], Liquid
Conditions	mass density [kg/m3]	speed of sound [m/s]	viscosity [mPa·s]
298.15 K	1074.43	1868	29.21
303.15 K	1071.38	1860	25.72
308.15 K	1068.32	1848	21.21
318.15 K	1062.14	1820	18.97
328.15 K	1055.89	1804	16.74
